Measured values as given in a melting point compilation (Tetko et al.; mined from patent text by program, amines drawn as free bases though some values may be those of a salt).

melting point [°C]	Compound
230 to 238	COc1ccc(C(=O)N[C@@H](CNC(=O)c2ccc(C)cc2)c2ccccc2)cc1
308 to 310	Cc1cc(-n2c(C)nnc2C)cc2ccc(=O)[nH]c12
236	COC(=O)Cn1c(C)cc(Cc2ccc(F)cc2)c(NC(=O)OCc2ccccc2)c1=O
253	Cc1nc(N2CCCC2)nc2c1c(=O)c(C(=O)O)cn2C1CC1
200 to 203	CCc1c(NC(=O)c2cc(S(C)(=O)=O)ccc2OCC(C)C)c(C(N)=O)nn1CCN1CCOCC1
92	CCOC(=Cc1ccc(-c2cccc(N(C)C(=O)Nc3ccc(C)cc3)c2)cc1)C(=O)O
175 to 176	O=C(c1ccc(C2CCCCC2)cc1)N1Cc2ccccc2Nc2ccccc21
112 to 114	CCN[C@@H]1CCCC[C@H]1NS(=O)(=O)c1ccc(C)cc1 (relative stereo)
70.5 to 72.5	Cc1oncc1C(=O)N1CCC(O)CC1
144 to 146	O=C(O)CN(C(=O)c1cccc(C(F)(F)F)c1S)C1CCCC1
178	Cn1c(=O)c2c(nc(Cl)n2Cc2ccccc2I)n(C)c1=O
138 to 140	Cc1ccc(-c2cn(C)c(-c3ccc(C)s3)n2)s1
114 to 115	CN(C)c1ccccc1CS(=O)c1cnc2ccccc2n1 (stereo not drawn)
84 to 86	COc1ccc(C(C)N(C)CCCCOc2ccc(S(=O)(=O)c3c(C(C)C)cn4ccccc34)cc2)cc1OC (stereo not drawn)
356 to 358	CC(C)(C)NC(=O)Nc1nc2nc(N)ncc2cc1-c1cccc(Cl)c1Cl
127	Cc1ccccc1-c1cccc(C(=O)O)c1
82.3	CNC(=O)C1CN(CC(=O)Nc2c(C)cc(C)cc2C)CCN1CCCC(c1ccc(F)cc1)c1ccc(F)cc1 (stereo not drawn)
214 to 216	N#Cc1ccc(S(=O)(=O)Nc2ccc(Br)c3cc[nH]c23)cc1
158 to 162	O=C1C=C(c2ccc(O)cc2)C(=O)N1
199 to 200	CC/C(=N\OC(F)F)c1ccc(Cl)c2nc3n(c12)CCCN3c1c(C)nc(OC)nc1C
162 to 163	Cn1ncc2c(c1=O)S(=O)CCNC2Cc1ccccc1 (stereo not drawn)
169 to 172	CC(=O)c1cc(-c2ccc(S(C)(=O)=O)cc2)c(-c2ccc(F)cc2)s1

The remaining lines, values behind:

Compound	melting point [°C]
CC(=O)c1cc(F)cc(C#N)c1F	80 to 83
O=C(O)C[C@]1(O)C[C@H](CCCCCCc2ccc(C(F)(F)F)cc2C(F)(F)F)OC1=O (relative stereo)	70 to 73
Cc1ccccc1C(Oc1cc(OCc2ccncc2)ccc1C#N)c1nnn[nH]1 (racemic)	132 to 133
CCOC(=O)c1sc(SC)c2c1CCc1sc(C)nc1-2	143 to 144
N#Cc1ccc(Sc2ccc3cc(Br)ccc3c2)cc1C(F)(F)F	114 to 116
COc1ccccc1-n1c(-c2cc(-c3ccccc3)c(N3CCOCC3)s2)nc2ccccc2c1=O	152 to 154
CCCCCCCCCCCCCCCCCCOc1ccc(OCc2ccccc2)c(C(=O)O)c1	80 to 81
CC(=O)Nc1nc2c(s1)-c1c(cnn1C(N)=O)CC2	265 to 270
CC(C)CN(Cc1nc(-c2ncn3c2CN(C)C(=O)c2ccccc2-3)no1)CC(C)C	170 to 172
CCOC(=O)c1ccc(C(OC(c2ccc(C(=O)OCC)cc2)c2ccc3c(c2)C(C)(C)CCC3(C)C)c2ccc3c(c2)C(C)(C)CCC3(C)C)cc1 (stereo not drawn)	109 to 111
CCCCNc1cc(-c2nc(N)n[nH]2)ccn1	268 to 270
COC(=O)c1cc(C(=O)Cl)cc([N+](=O)[O-])c1	66 to 68
CCCCOCCOc1ccc(-c2ccc3c(c2)C=C(C(=O)Nc2ccc(OCc4nccn4CCC)cc2)CCN3CC(C)C)cc1	118 to 120
COc1c(Cl)ccc(-c2cc(N)c(Cl)c(C(=O)N(C)O)n2)c1F	211 to 214
Oc1ccc(Oc2ccc(Oc3ccc(O)cc3)cc2)cc1	187 to 189
C=CCOc1cccc2nc(C)sc12	38 to 39
